In patent publication US11377425B1, “Small molecule modulators of IL-17” (LEO Pharma A/S, priority 2018, dated 2022):

Molecular target: T1, human IL-17AA (Homo sapiens, UniProt Q16552)
T1 construct: host or cells: HEK (human embryonic kidney) cells
T1 sequence (Q16552 24-155): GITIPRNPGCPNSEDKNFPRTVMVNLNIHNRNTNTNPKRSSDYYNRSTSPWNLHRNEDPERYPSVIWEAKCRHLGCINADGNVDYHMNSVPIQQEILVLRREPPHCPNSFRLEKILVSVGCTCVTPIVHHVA
Assay: IL-8 release assay in human epithelial keratinocytes adult (HEKa)
Format: cell-based
Details: HEKa cells, 3 ng/mL HEK-human IL-17AA + 10 ng/mL human TNFalpha; read-out: Rel EC50 IL-8 release assay
Outline: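 IL-8 release, quantified by HTRF and normalized to controls, reports IL-17 signaling in HEKa cells treated with compound plus final 3 ng/mL IL-17AA (HEK-derived) and 10 ng/mL TNF-alpha for 68-72 h; TNF-alpha-only wells set 100% inhibition. Four-parameter logistic fits (r^2>0.9) give relative IC50 and Emax; PrestoBlue flags cytotoxicity.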

Row | EC50 [nM] | Structure (SMILES)
1 | < 100 | Cc1n[nH]c(C)c1-c1ccc(NC(=O)[C@@H](NC(=O)c2ccnn2C)[C@H]2CCCc3ccccc32)cc1 [Example 81, N-[(1S)-2-[4-(3,5-dimethyl-1H-pyrazol-4-yl)anilino]-2-oxo-1-[(1S)-tetralin-1-yl]ethyl]-2-methyl-pyrazole-3-carboxamide]
2 | 100 to 1000 | Cc1n[nH]c(C)c1-c1ccc(NC(=O)[C@@H](NC(=O)c2ccnn2C)[C@H]2CCCc3ccc(C#N)cc32)cc1 [Example 82, N-[(1S)-1-[(1S)-7-cyanotetralin-1-yl]-2-[4-(3,5-dimethyl-1H-pyrazol-4-yl)anilino]-2-oxo-ethyl]-2-methyl-pyrazole-3-carboxamide]
3 | 100 to 1000 | Cc1ncn(C)c1-c1ccc(NC(=O)[C@@H](NC(=O)OC(C)(C)C)C2CCCCC2)cc1 [Example 83, tert-butyl N-[(1S)-1-cyclohexyl-2-[4-(3,5-dimethylimidazol-4-yl)anilino]-2-oxo-ethyl]carbamate]
4 | 100 to 1000 | Cc1ncn(C)c1-c1ccc(NC(=O)C(NC(=O)OC(C)(C)C)C(C2CC2)C2CC2)cc1 (stereo not shown) [Example 84, tert-butyl N-[1-(dicyclopropylmethyl)-2-[4-(3,5-dimethylimidazol-4-yl)anilino]-2-oxo-ethyl]carbamate]
5 | > 1000 | Cc1ncn(C)c1-c1ccc(NC(=O)[C@@H](NC(=O)OC(C)(C)C)C2CCCC2)cc1 [Example 87, tert-butyl N-[(1S)-1-cyclopentyl-2-[4-(3,5-dimethylimidazol-4-yl)anilino]-2-oxo-ethyl]carbamate]
6 | 100 to 1000 | Cc1ncn(C)c1-c1ccc(NC(=O)[C@@H](NC(=O)OC(C)(C)C)C2CCCCCC2)cc1 [Example 88, tert-butyl N-[(1S)-1-cycloheptyl-2-[4-(3,5-dimethylimidazol-4-yl)anilino]-2-oxo-ethyl]carbamate]
7 | > 1000 | CCC(CC)[C@H](NC(=O)OC(C)(C)C)C(=O)Nc1ccc(-c2c(C)ncn2C)cc1 [Example 89, tert-butyl N-[(1S)-1-[[4-(3,5-dimethylimidazol-4-yl)phenyl]carbamoyl]-2-ethyl-butyl]carbamate]
8 | > 1000 | CC(C)[C@H](NC(=O)OC(C)(C)C)C(=O)Nc1ccc(-c2cncn2C)cc1 [Example 91, tert-butyl N-[(1S)-2-methyl-1-[[4-(3-methylimidazol-4-yl)phenyl]carbamoyl]propyl] carbamate]
9 | > 1000 | Cn1cncc1-c1ccc(NC(=O)[C@@H](NC(=O)OC(C)(C)C)C2CCC2)cc1 [Example 92, tert-butyl N-[(1S)-1-cyclobutyl-2-[4-(3-methylimidazol-4-yl)anilino]-2-oxo-ethyl]carbamate]
10 | > 1000 | Cn1cncc1-c1ccc(NC(=O)[C@H](CC2CCCCC2)NC(=O)OC(C)(C)C)cc1 [Example 93, tert-butyl N-[(1S)-1-(cyclohexylmethyl)-2-[4-(3-methylimidazol-4-yl)anilino]-2-oxo-ethyl]carbamate]
11 | > 1000 | CCC(C)[C@H](NC(=O)OC(C)(C)C)C(=O)Nc1ccc(-c2cncn2C)cc1 (stereo partly drawn) [Example 94, tert-butyl N-[(1S)-2-methyl-1-[[4-(3-methylimidazol-4-yl)phenyl]carbamoyl]butyl] carbamate]
12 | > 1000 | Cn1cncc1-c1ccc(NC(=O)[C@H](Cc2ccccc2)NC(=O)OC(C)(C)C)cc1 [Example 95, tert-butyl N-[(1S)-1-benzyl-2-[4-(3-methylimidazol-4-yl)anilino]-2-oxo-ethyl]carbamate]
13 | > 1000 | CC(C)C[C@H](NC(=O)OC(C)(C)C)C(=O)Nc1ccc(-c2cncn2C)cc1 [Example 96, tert-butyl N-[(1S)-3-methyl-1-[[4-(3-methylimidazol-4-yl)phenyl]carbamoyl]butyl] carbamate]
14 | > 1000 | Cn1cncc1-c1ccc(NC(=O)[C@H](Cc2ccccc2Cl)NC(=O)OC(C)(C)C)cc1 [Example 97, tert-butyl N-[(1S)-1-[(2-chlorophenyl)methyl]-2-[4-(3-methylimidazol-4-yl)anilino]-2-oxo-ethyl]carbamate]
15 | > 1000 | Cn1cncc1-c1ccc(NC(=O)[C@@H](NC(=O)OC(C)(C)C)C2CCCC2)cc1 [Example 98, tert-butyl N-[(1S)-1-cyclopentyl-2-[4-(3-methylimidazol-4-yl)anilino]-2-oxo-ethyl]carbamate]
16 | > 1000 | Cn1cncc1-c1ccc(NC(=O)[C@@H](NC(=O)OC(C)(C)C)C2Cc3ccccc3C2)cc1 [Example 99, tert-butyl N-[(1S)-1-indan-2-yl-2-[4-(3-methylimidazol-4-yl)anilino]-2-oxo-ethyl]carbamate]
17 | > 1000 | Cn1cncc1-c1ccc(NC(=O)[C@@H](NC(=O)OC(C)(C)C)C2CCCCC2)cc1 [Example 100, tert-butyl N-[(1S)-1-cyclohexyl-2-[4-(3-methylimidazol-4-yl)anilino]-2-oxo-ethyl]carbamate]

Row | EC50 [nM] | Structure (SMILES)
18 | > 1000 | Cn1cncc1-c1ccc(NC(=O)[C@@H](NC(=O)OC(C)(C)C)C(c2ccccc2)c2ccccc2)cc1 [Example 101, tert-butyl N-[(1S)-1-benzhydryl-2-[4-(3-methylimidazol-4-yl)anilino]-2-oxo-ethyl]carbamate]
19 | < 100 | Cc1n[nH]c(C)c1-c1ccc(NC(=O)[C@@H](NC(=O)c2ccnn2CCCO)C(C2CC2)C2CC2)cc1 [Example 102, N-[(1S)-1-(dicyclopropylmethyl)-2-[4-(3,5-dimethyl-1H-pyrazol-4-yl)anilino]-2-oxo-ethyl]-2-(3-hydroxypropyl)pyrazole-3-carboxamide]
20 | > 1000 | Cc1n[nH]c(C)c1-c1ccc(NC(=O)[C@H](NC(=O)c2ccnn2C)C2CCCCC2)cc1 [Example 103, N-[(1R)-1-cyclohexyl-2-[4-(3,5-dimethyl-1H-pyrazol-4-yl)anilino]-2-oxo-ethyl]-2-methyl-pyrazole-3-carboxamide]
21 | < 100 | Cc1n[nH]c(C)c1-c1ccc(NC(=O)[C@@H](NC(=O)c2ccnn2CC(F)F)C2CCCCC2)cc1 [Example 106, N-[(1S)-1-cyclohexyl-2-[4-(3,5-dimethyl-1H-pyrazol-4-yl)anilino]-2-oxo-ethyl]-2-(2,2-difluoroethyl)pyrazole-3-carboxamide]
22 | < 100 | CCn1nccc1C(=O)N[C@H](C(=O)Nc1ccc(-c2c(C)n[nH]c2C)cc1)C(C1CC1)C1CC1 [Example 107, N-[(1S)-1-(dicyclopropylmethyl)-2-[4-(3,5-dimethyl-1H-pyrazol-4-yl)anilino]-2-oxo-ethyl]-2-ethyl-pyrazole-3-carboxamide]
23 | < 100 | Cc1n[nH]c(C)c1-c1ccc(NC(=O)[C@@H](NC(=O)c2ccnn2C2CCC2)C2CCCCC2)cc1 [Example 108, 2-cyclobutyl-N-[(1S)-1-cyclohexyl-2-[4-(3,5-dimethyl-1H-pyrazol-4-yl)anilino]-2-oxo-ethyl]pyrazole-3-carboxamide]
24 | 100 to 1000 | CC[C@H](C)[C@H](NC(=O)c1ccnn1CC)C(=O)Nc1ccc(-c2c(C)n[nH]c2C)cc1 [Example 109, N-[(1S,25)-1-[[4-(3,5-dimethyl-1H-pyrazol-4-yl)phenyl]carbamoyl]-2-methyl-butyl]-2-ethyl-pyrazole-3-carboxamide]
25 | 100 to 1000 | CC[C@H](C)[C@H](NC(=O)c1ccnn1C(C)C)C(=O)Nc1ccc(-c2c(C)n[nH]c2C)cc1 [Example 110]
26 | > 1000 | Cc1n[nH]c(C)c1-c1ccc(NC(=O)[C@H](NC(=O)c2ccnn2C(C)C)C2CCC3(CC2)CC3)cc1 [Example 111, N-[(1R)-2-[4-(3,5-dimethyl-1H-pyrazol-4-yl)anilino]-2-oxo-1-spiro[2.5]octan-6-yl-ethyl]-2-isopropyl-pyrazole-3-carboxamide]
27 | < 100 | Cc1n[nH]c(C)c1-c1ccc(NC(=O)[C@@H](NC(=O)c2ccnn2C(C)C)C2CCC3(CC2)CC3)cc1 [Example 112, N-[(1S)-2-[4-(3,5-dimethyl-1H-pyrazol-4-yl)anilino]-2-oxo-1-spiro[2.5]octan-6-yl-ethyl]-2-isopropyl-pyrazole-3-carboxamide]
28 | > 1000 | CC[C@@H](C)[C@H](NC(=O)c1ccnn1C)C(=O)Nc1ccc(-c2c(C)n[nH]c2C)cc1 [Example 113]
29 | < 100 | Cc1n[nH]c(C)c1-c1ccc(NC(=O)[C@@H](NC(=O)c2ccnn2C2CCC2)C(C2CC2)C2CC2)cc1 [Example 114, 2-cyclobutyl-N-[(1S)-1-(dicyclopropylmethyl)-2-[4-(3,5-dimethyl-1H-pyrazol-4-yl)anilino]-2-oxo-ethyl]pyrazole-3-carboxamide]
30 | < 100 | Cc1n[nH]c(C)c1-c1ccc(NC(=O)[C@@H](NC(=O)c2ccnn2CC(F)F)C(C2CC2)C2CC2)cc1 [Example 115, N-[(1S)-1-(dicyclopropylmethyl)-2-[4-(3,5-dimethyl-1H-pyrazol-4-yl)anilino]-2-oxo-ethyl]-2-(2,2-difluoroethyl)pyrazole-3-carboxamide]
31 | < 100 | Cc1n[nH]c(C)c1-c1ccc(NC(=O)[C@@H](NC(=O)c2ccnn2C2CC2)C(C2CC2)C2CC2)cc1 [Example 116, 2-cyclopropyl-N-[(1S)-1-(dicyclopropylmethyl)-2-[4-(3,5-dimethyl-1H-pyrazol-4-yl)anilino]-2-oxo-ethyl]pyrazole-3-carboxamide]
32 | < 100 | Cc1n[nH]c(C)c1-c1ccc(NC(=O)[C@@H](NC(=O)c2ccnn2C)C(C2CC2)C2CC2)cc1 [Example 117, N-[(1S)-1-(dicyclopropylmethyl)-2-[4-(3,5-dimethyl-1H-pyrazol-4-yl)anilino]-2-oxo-ethyl]-2-methyl-pyrazole-3-carboxamide]
33 | 100 to 1000 | CCC(CC)[C@H](NC(=O)c1ccnn1C)C(=O)Nc1ccc(-c2c(C)n[nH]c2C)cc1 [Example 118]
34 | 100 to 1000 | Cc1n[nH]c(C)c1-c1ccc(NC(=O)[C@@H](NC(=O)c2ccnn2C(C)CO)C(C2CC2)C2CC2)cc1 (stereo partly shown) [Example 120]
